The structures appear in SMILES notation.

In the experiment the target is T1, mouse Nurr1 full-length (Mus musculus, UniProt Q06219).
T1 construct: pcDNA3.1 Myc/His mouse Nurr1 full-length construct; expressed in transfected cells; host or cells: SK-N-BE2C
T1 sequence (Q06219 whole entry): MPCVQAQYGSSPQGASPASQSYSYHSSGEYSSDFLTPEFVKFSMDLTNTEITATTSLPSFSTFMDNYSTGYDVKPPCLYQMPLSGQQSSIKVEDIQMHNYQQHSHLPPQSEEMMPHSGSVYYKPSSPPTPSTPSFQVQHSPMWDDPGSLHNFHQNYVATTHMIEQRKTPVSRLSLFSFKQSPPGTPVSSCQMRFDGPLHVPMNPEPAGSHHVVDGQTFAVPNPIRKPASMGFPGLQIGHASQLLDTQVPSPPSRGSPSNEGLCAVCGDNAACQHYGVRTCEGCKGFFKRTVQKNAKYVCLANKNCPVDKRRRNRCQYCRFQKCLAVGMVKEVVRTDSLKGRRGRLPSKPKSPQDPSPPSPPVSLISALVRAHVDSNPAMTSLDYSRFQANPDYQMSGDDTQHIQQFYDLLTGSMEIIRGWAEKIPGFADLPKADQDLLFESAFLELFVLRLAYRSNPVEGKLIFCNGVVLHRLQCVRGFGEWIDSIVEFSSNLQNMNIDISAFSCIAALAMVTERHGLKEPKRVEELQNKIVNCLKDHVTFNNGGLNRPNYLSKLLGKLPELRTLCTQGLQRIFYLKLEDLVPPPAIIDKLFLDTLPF
The experiment in a line: Luciferase reporter gene assay for Nurr1 transcriptional activity in SK-N-BE2C cells. Format: cell-based. The note with it: relative activity over control (luminescence value; 1.0). Here is the method: To investigate whether the PG analogs of the present invention activate Nurr1 function, the inventors of the present invention employed an reporter gene assay and examined the transcriptional activation as described in Kim, C.-H. et al., Proceedings of the National Academy of Sciences 112, 8756-8761, doi:10.1073/pnas.1509742112 (2015).
The gene assay was performed by Luciferase assay as described below:
[Protocol for Luciferase Assay to Determine Nurr1 Transcriptional Activity] • 1. SK-N-BE2C cells were maintained in HyClone™ DMEM High Glucose (Cat. No.: SH30022.01) with 10% (v/v) fetal bovine serum (FBS), 100 units/ml penicillin and 100 μg/ml streptomycin. • 2. Seed 1.5×10^5 SK-N-BE2C cells/well into a 24-well plate and incubate at 37° C. with 5% CO2 for 24 hours. • 3. After 24 hours, transfect cells with pcDNA3.1 Myc/His mouse Nurr1 full-length construct, firefly luciferase reporter vector (pGL-3 basic from Promega, Cat. No.:E1751; with appropriate response element cloned in) and Renilla luciferase control vector (pRL-null from Promega, Cat. No.:E2271) in the ratio of 8:1:1 (Nurr1: firefly: renilla) or 400 ng, 50 ng and 50 ng respectively, amounting to a total of 500 ng in the 50 μl transfection mix for 1 well. • 4. To make the transfection mix, first prepare the DNA with P3000 reagent by adding the appropriate amount of DNA with 1 μl P3000 reagent and top up with Opti-MEM® I Reduced-Serum Media (from ThermoFisher Scientific [Cat. No.: 31985070]) to 25 μl. Incubate for 5 minutes at room temperature. • 5. Make another mix consisting of 1 μl Lipofectamine 3000 reagent with 24 μl Opti-MEM® I Reduced-Serum Media per well. Add this Lipofectamine mix to the previous DNA-P3000 mix (after the previous 5 minute incubation) and incubate them for 15 minutes at room temperature. [P3000:Lipofectamine=1:1]. • 6. In the meantime, change the media in the sample wells with fresh DMEM media without antibiotics. • 7. After 15 minutes incubation, add the 50 μl transfection mix into each well and incubate the plate for 24 hours at 37° C. with 5% CO2. • 8. After 24 hours, change the media to normal DMEM media with antibiotics and add various doses of compounds into designated wells and incubate the plate for another 24 hours at 37° C. with 5% CO2. • 9. Following the 24-hour incubation period, luciferase assay can be conducted using Dual-Glo Luciferase® kit from Promega (Cat. No.: E2920). • 10. Lyse each tested wells for 15 minutes with 75 μl of passive lysis buffer provided in the Dual-Luciferase® kit from Promega (Cat. No.: E1910). [Alternatively, add 75 μl of PBS and 75 μl of Dual-Glo® Luciferase Reagent and incubate for 10 minutes at room temperature (cover the plate with foil to protect from light). Transfer the entire sample in each well to a Greiner CELLSTAR® 96-well white polystyrene plate then proceed to step 13]. • 11. After 15 minutes, transfer each lysed sample to a Greiner CELLSTAR® 96-well white polystyrene plate (Cat. No.:655083). • 12. To each well of lysed cells, add 75 μl of Dual-Glo® Luciferase Reagent and incubate for 10 minutes at room temperature (cover the plate with foil to protect from light). • 13. Set the measurement with a 10-second integrated measurement period. • 14. Add 75 μl of Dual-Glo® Stop & Glo® reagent into each well and incubate for 10 minutes before commencing with the same parameters as before to determine the RLU for the Renilla luciferase. • 15. The averaged reading for wells corresponding to non-transfected cells can be subtracted from each RLU reading and duplicate/triplicate readings can then be averaged. Normalization of the luminescence reading for each well can be carried out by dividing the firefly luciferase RLU with the corresponding Renilla luciferase RLU. Each drug-treated well can then be normalized against the averaged DMSO-treated well reading.
Take `CCCCC(C)(O)C/C=C/[C@H]1[C@H](O)CC(=O)[C@@H]1CCCCCCC(=O)O` (mixture of isomers) [Compound 94, Misoprostol acid]: the “Fold activity (1 uM)” value was “B (1.1~2.0 (moderate))”.

On to `CCCCC[C@H](O)/C=C/[C@H]1[C@H](O)CC(=O)[C@@H]1C/C=C/CCCC(=O)O` (relative stereo) [Compound 60, 5-trans Prostaglandin E2], for which the “Fold activity (1 uM)” value is “B (1.1~2.0 (moderate))”.

For `CC/C=C/C[C@H](O)/C=C/[C@H]1[C@H](O)CC(=O)[C@@H]1C/C=C\CCCC(=O)O` (relative stereo) [Compound 78, 17-trans Prostaglandin E3], the “Fold activity (1 uM)” value is “A (above 2.0 (high activity))”.

Consider `CCCCC[C@H](O)/C=C/[C@H]1[C@H](O)CC(=O)[C@@H]1CCCCCCC(=O)Oc1ccc(NC(=O)c2ccccc2)cc1` [Compound 1, 4-Benzamidophenyl-7-((1R,2R,3R)-3-hydroxy-2-((S,E)-3-hydroxyoct-1-enyl)-5-oxocyclopentyl)heptanoate], for which the “Fold activity (1 uM)” value is reported as “A (above 2.0 (high activity))”.

As for `CCCCC(C)(O)C/C=C/[C@H]1[C@H](O)CC(=O)[C@@H]1CCCCCCC(=O)Oc1ccc(NC(=O)c2ccccc2)cc1` (stereo partly drawn) [Compound 2, 4-Benzamidophenyl-7-((1R,2R,3R)-3-hydroxy-2-((E)-4-hydroxy-4-methyloct-1-en-1-yl)-5-oxocyclopentyl)heptanoate], the “Fold activity (1 uM)” value is given as “A (above 2.0 (high activity))”.

On to `CCCCC[C@H](O)/C=C/[C@H]1[C@H](O)CC(=O)[C@@H]1CCCCCCC(=O)Nc1ccc(NC(=O)c2ccccc2)cc1` [Compound 3, N-(4-(7-((1R,2R,3R)-3-hydroxy-2-((S,E)-3-hydroxyoct-1-en-1-yl)-5-oxocyclopentyl)heptanamido)phenyl)benzamide], for which the “Fold activity (1 uM)” value was “B (1.1~2.0 (moderate))”.

`CCCCC[C@H](O)/C=C/[C@H]1[C@H](O)CC(=O)[C@@H]1CCCCCCC(=O)Nc1ccccc1` [Compound 4, 7-((1R,2R,3R)-3-hydroxy-2-((S,E)-3-hydroxyoct-1-enyl)-5-oxocyclopentyl)-N-phenylheptanamide]: the “Fold activity (1 uM)” value is listed as “A (above 2.0 (high activity))”.

Consider `CCCCC[C@H](O)/C=C/[C@H]1[C@H](O)CC(=O)[C@@H]1CCCCCCC(=O)Nc1ccc(Cl)cc1` [Compound 5, N-(4-chlorophenyl)-7-((1R,2R,3R)-3-hydroxy-2-((S,E)-3-hydroxyoct-1-enyl)-5-oxocyclopentyl)heptanamide], for which the “Fold activity (1 uM)” value is reported as “A (above 2.0 (high activity))”.

`CCCCC[C@H](O)/C=C/[C@H]1[C@H](O)CC(=O)[C@@H]1CCCCCCC(=O)Nc1cccc(C(=O)Nc2ccccc2)c1` [Compound 6, 3-(7-((1R,2R,3R)-3-hydroxy-2-((S,E)-3-hydroxyoct-1-enyl)-5-oxocyclopentyl)heptanamido)-N-phenylbenzamide]: the “Fold activity (1 uM)” value was “B (1.1~2.0 (moderate))”.

Turning to `CCCCC[C@H](O)/C=C/[C@H]1[C@H](O)CC(=O)[C@@H]1CCCCCCC(=O)Nc1ccc2nccnc2c1` [Compound 7, 7-((1R,2R,3R)-3-hydroxy-2-((S,E)-3-hydroxyoct-1-enyl)-5-oxocyclopentyl)-N-(quinoxalin-6-yl)heptanamide], the “Fold activity (1 uM)” value is given as “A (above 2.0 (high activity))”.

As for `CCCCC[C@H](O)/C=C/[C@H]1[C@H](O)CC(=O)[C@@H]1CCCCCCC(=O)Nc1ccc2cccnc2c1` [Compound 8, 7-((1R,2R,3R)-3-hydroxy-2-((S,E)-3-hydroxyoct-1-enyl)-5-oxocyclopentyl)-N-(quinolin-7-yl)heptanamide], the “Fold activity (1 uM)” value is on record as “A (above 2.0 (high activity))”.

Consider `CCCCC[C@H](O)/C=C/[C@H]1[C@H](O)CC(=O)[C@@H]1CCCCCCC(=O)NOc1ccccc1` [Compound 9, 7-((1R,2R,3R)-3-hydroxy-2-((S,E)-3-hydroxyoct-1-enyl)-5-oxocyclopentyl)-N-phenoxyheptanamide], for which the “Fold activity (1 uM)” value was “A (above 2.0 (high activity))”.

For `CCCCC(C)(O)C/C=C/[C@H]1[C@H](O)CC(=O)[C@@H]1CCCCCCC(=O)NOc1ccccc1` (stereo partly drawn) [Compound 10, 7-((1R,2R,3R)-3-hydroxy-2-((E)-4-hydroxy-4-methyloct-1-enyl)-5-oxocyclopentyl)-N-phenoxyheptanamide], the “Fold activity (1 uM)” value is listed as “A (above 2.0 (high activity))”.

With `CCCCCC(O)/C=C/[C@H]1[C@H](O)CC(=O)[C@@H]1CCCCCCC(=O)Oc1ccc(NC(=O)c2ccc(F)cc2)cc1` (stereo partly drawn) [Compound 11, 4-(4-fluorobenzamido)phenyl 7-((1R,2R,3R)-3-hydroxy-2-((E)-3-hydroxyoct-1-enyl)-5-oxocyclopentyl)heptanoate], the “Fold activity (1 uM)” value is recorded as “A (above 2.0 (high activity))”.

With `CCCCC[C@H](O)/C=C/[C@H]1[C@H](O)CC(=O)[C@@H]1CCCCCCC(=O)Oc1ccc(NC(=O)c2ccc(F)c(F)c2)cc1` [Compound 12, 4-(3,4-difluorobenzamido)phenyl 7-((1R,2R,3R)-3-hydroxy-2-((S,E)-3-hydroxyoct-1-enyl)-5-oxocyclopentyl)heptanoate], the “Fold activity (1 uM)” value is given as “A (above 2.0 (high activity))”.

In the case of `CCCCC[C@H](O)/C=C/[C@H]1[C@H](O)CC(=O)[C@@H]1CCCCCCC(=O)Oc1ccc(NC(=O)c2cc(F)cc(F)c2)cc1` [Compound 13, 4-(3,5-difluorobenzamido)phenyl 7-((1R,2R,3R)-3-hydroxy-2-((S,E)-3-hydroxyoct-1-enyl)-5-oxocyclopentyl)heptanoate], the “Fold activity (1 uM)” value is “A (above 2.0 (high activity))”.

As to `CCCCC[C@H](O)/C=C/[C@H]1[C@H](O)CC(=O)[C@@H]1CCCCCCC(=O)Oc1cc(OC)c(OC)c(OC)c1` [Compound 14, 3,4,5-trimethoxyphenyl 7-((1R,2R,3R)-3-hydroxy-2-((S,E)-3-hydroxyoct-1-enyl)-5-oxocyclopentyl)heptanoate], the “Fold activity (1 uM)” value is “A (above 2.0 (high activity))”.

As to `CCCCC[C@H](O)/C=C/[C@H]1[C@H](O)CC(=O)[C@@H]1CCCCCCC(=O)OCc1ccccc1` [Compound 15, benzyl 7-((1R,2R,3R)-3-hydroxy-2-((S,E)-3-hydroxyoct-1-enyl)-5-oxocyclopentyl)heptanoate], the “Fold activity (1 uM)” value is reported as “A (above 2.0 (high activity))”.

For the compound `CCCCC[C@@H](O)/C=C/[C@H]1C(=O)C[C@H](O)[C@@H]1C/C=C\CCCC(=O)O` [Compound 16, 15(R)-Prostaglandin D2], the “Fold activity (1 uM)” value was “A (above 2.0 (high activity))”.

As for `CCCCCC(O)/C=C/C1C(=O)CC(O)C1C/C=C\CCCC(=O)OCC(O)CO` (stereo not drawn) [Compound 17, Prostaglandin D2-1-glyceryl ester], the “Fold activity (1 uM)” value is recorded as “B (1.1~2.0 (moderate))”.

For `CCCCC[C@H](O)/C=C/[C@H]1[C@H](O)CC(=O)[C@@H]1CCCCCCC(=O)NCCO` [Compound 18, Prostaglandin E1 Ethanolamide], the “Fold activity (1 uM)” value is reported as “A (above 2.0 (high activity))”.

For the compound `CCCCCC(=O)/C=C/[C@H]1[C@H](O)CC(=O)[C@@H]1CCCCCCC(=O)O` [Compound 19, 15-keto Prostaglandin E1], the “Fold activity (1 uM)” value is “B (1.1~2.0 (moderate))”.

In the case of `CCCCC[C@H](O)/C=C/[C@H]1[C@H](O)CC(=O)[C@@H]1C/C=C\CCCC(=O)O` [Compound 20, Prostaglandin E2], the “Fold activity (1 uM)” value is recorded as “A (above 2.0 (high activity))”.

As for `CCCCC[C@H](O)/C=C/[C@H]1[C@@H](O)CC(=O)[C@@H]1C/C=C\CCCC(=O)O` [Compound 21, 11b-Prostaglandin E2], the “Fold activity (1 uM)” value is on record as “B (1.1~2.0 (moderate))”.

Source of the values: patent publication US20210139435A1, “PROSTAGLANDIN ANALOGS AND USES THEREOF” (Lifex Biolabs, Inc., priority 2019, published 2021).
